Laboratory results taken from the supplement of paper PMC10307832.

What was measured:
Experiment in all cases: relative viability (nuclei count vs DMSO), 5 days (fraction); higher = more cells survive
[1] = compound: CN(C)CC1=CC(=CC=C1)N=C(C2=CC=CC=C2)C3=C(NC4=C3C=CC(=C4)C(=O)N(C)C)O + CC(=O)c1c(C)c2cnc(Nc3ccc(N4CCNCC4)cn3)nc2n(C2CCCC2)c1=O [Palbociclib] (partner 0.5 µM)
Summary of the method: (§1)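 Lung cancer cell lines, seeded in 1536-well plates, were treated the following day by pin tool with a single drug or with five library-drug doses (not always all listed) in √10 steps on top of a fixed anchor-drug dose. Cells were fixed and nuclei stained in one step after 5 days, and nuclei were counted. Relative viability is the nuclei count for treated wells divided by that for vehicle wells, reported as medians of duplicate plates.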

[2] = compound: CN(C)CC1=CC(=CC=C1)N=C(C2=CC=CC=C2)C3=C(NC4=C3C=CC(=C4)C(=O)N(C)C)O + CC(C)C[C@H](NC(=O)[C@H](Cc1ccccc1)NC(=O)c1cnccn1)B(O)O [Bortezomib] (partner 0.002 µM)
Summary of the method: as §1

[3] = compound: CN(C)CC1=CC(=CC=C1)N=C(C2=CC=CC=C2)C3=C(NC4=C3C=CC(=C4)C(=O)N(C)C)O + COc1cc2c(Oc3ccc(NC(=O)C4(C(=O)Nc5ccc(F)cc5)CC4)cc3F)ccnc2cc1OCCCN1CCOCC1 [Foretinib] (partner 0.25 µM)
Summary of the method: as §1

[4] = compound: CN(C)CC1=CC(=CC=C1)N=C(C2=CC=CC=C2)C3=C(NC4=C3C=CC(=C4)C(=O)N(C)C)O + CS(=O)(=O)N1CCN(Cc2cc3nc(-c4cccc5[nH]ncc45)nc(N4CCOCC4)c3s2)CC1 [Pictilisib] (partner 1 µM)
Summary of the method: as §1

Cell Line	relative viability ([1]; first compound 0.08 µM)	relative viability ([1]; first compound 0.253 µM)	relative viability ([1]; first compound 0.8 µM)	relative viability ([1]; first compound 2.53 µM)	relative viability ([1]; first compound 8 µM)	relative viability ([2]; first compound 0.08 µM)	relative viability ([2]; first compound 0.253 µM)	relative viability ([2]; first compound 0.8 µM)	relative viability ([2]; first compound 2.53 µM)	relative viability ([2]; first compound 8 µM)	relative viability ([3]; first compound 0.08 µM)	relative viability ([3]; first compound 0.253 µM)	relative viability ([3]; first compound 0.8 µM)	relative viability ([3]; first compound 2.53 µM)	relative viability ([3]; first compound 8 µM)	relative viability ([4]; first compound 0.08 µM)	relative viability ([4]; first compound 0.253 µM)	relative viability ([4]; first compound 0.8 µM)	relative viability ([4]; first compound 2.53 µM)	relative viability ([4]; first compound 8 µM)
201T	0.331	0.346	0.341	0.384	0.352	1.13	1.15	1.08	1.06	0.994	1.12	1.01	1.07	0.957	0.774	0.674	0.709	0.681	0.662	0.675
A-427	0.558	0.5	0.508	0.505	0.465	0.986	0.941	1.02	0.935	0.98	1.07	1.17	1.07	0.986	0.883	0.751	0.693	0.902	0.803	0.706
ABC-1	0.775	0.795	0.588	0.545	0.569	0.324	0.312	0.264	0.274	0.316	1.31	1.12	0.851	1	1.28	0.613	0.811	0.599	0.643	0.64
BEN	0.49	0.485	0.492	0.467	0.454	0.951	0.679	0.794	0.876	0.717	0.705	0.68	0.641	0.68	0.596	0.664	0.587	0.584	0.55	0.509
CAL-12T	0.436	0.431	0.208	0.524	0.43		1.02	1.03		1.08	1.09	1.22	1.44	0.864	1.29		0.74	0.482		0.459
COR-L23	0.321	0.329	0.379	0.269	0.326	0.99	1.06	0.991	0.958	0.904	1.08	0.972	1.03	0.88	0.925	0.811	0.709	0.858	0.637	0.656
COR-L 105	0.407	0.4	0.362	0.379	0.407	0.767	0.889	0.586	0.761	0.753	1.1	1.05	0.967	0.926	0.991	0.356	0.381	0.39	0.377	0.332
Calu-6						1.02	1.06	1.05	1.13	1.06	0.923	0.882	0.948	0.906	0.929	0.899	0.872	0.932	0.877	0.852
ChaGo-K-1	0.918	0.905	0.971	0.94	0.839	0.986	1.1	1.03		1.12	0.945	0.911	1.04	0.902	0.771	0.814	1.03	0.967		0.879
EBC-1						0.551	0.632	0.605	0.737	0.598	0.0943	0.112	0.0994	0.103	0.107	0.441	0.456	0.416	0.365	0.318
EKVX	0.392	0.385		0.373	0.42	1	1	1.01	0.962	1.06	0.88	1.06	0.555	0.776	0.804	0.425	0.452	0.384	0.431	0.574
EMC-BAC-2	0.561	0.533	0.511	0.494	0.542	1.09	1.08	1.09	1.05	1.01	1.11	0.99	0.963	0.944	0.958	0.545	0.528	0.552	0.572	0.569
EPLC-272H	0.309	0.35	0.269	0.357	0.301	0.949	1.16	0.903	1.02	1.15	0.654	0.776	0.534	0.681	0.51	0.301	0.331	0.323	0.347	0.457
H3255	0.304	0.331	0.336	0.334	0.343	0.779	0.893	0.752	0.822	0.94	0.857	0.857	0.631	1.04	0.848	0.548	0.493	0.386	0.455	0.475
HARA	0.242	0.223	0.247	0.302	0.236	1.06	1.1	1.06	1.02	1.05	0.398	1.02	1.06	0.867	0.79	0.401	0.472	0.405	0.466	0.412
HCC-15	0.706	0.724	0.74	0.711	0.752	0.984	0.956	1.08	1.03	1.12	1.01	1.02	1.1	0.99	1	0.739	0.768	0.877	0.819	0.774
HCC-44	0.966	1.01	0.973	0.923	1	0.913	0.872	0.875	0.803	0.948						0.645	0.715	0.585	0.532	0.584
